In patent US6620593B1, “Method for safety evaluation of chemical compound using recombinant yeast expressing human cytochrome P450” (Sumitomo Chemical Company, Limited, priority 1993, dated 2003):
Like-named read-outs stand apart in the source and are kept apart here.

Tests used:
human P450 3A4 = assay: Metabolism (hydroxylation) of substrates using transformed yeast cells or microsomal fractions expressing human P450 3A4
Procedure: (§1) Then 2 ml of dichloromethane was added.

human P450 1A2 = target: T1, human P450 1A2 (Homo sapiens, UniProt P05177); assay: Metabolism (hydroxylation) of substrates using transformed yeast cells or their microsomal fractions expressing human P450 1A2 and yeast NADPH-P450 reductase
T1 sequence (P05177 1-516): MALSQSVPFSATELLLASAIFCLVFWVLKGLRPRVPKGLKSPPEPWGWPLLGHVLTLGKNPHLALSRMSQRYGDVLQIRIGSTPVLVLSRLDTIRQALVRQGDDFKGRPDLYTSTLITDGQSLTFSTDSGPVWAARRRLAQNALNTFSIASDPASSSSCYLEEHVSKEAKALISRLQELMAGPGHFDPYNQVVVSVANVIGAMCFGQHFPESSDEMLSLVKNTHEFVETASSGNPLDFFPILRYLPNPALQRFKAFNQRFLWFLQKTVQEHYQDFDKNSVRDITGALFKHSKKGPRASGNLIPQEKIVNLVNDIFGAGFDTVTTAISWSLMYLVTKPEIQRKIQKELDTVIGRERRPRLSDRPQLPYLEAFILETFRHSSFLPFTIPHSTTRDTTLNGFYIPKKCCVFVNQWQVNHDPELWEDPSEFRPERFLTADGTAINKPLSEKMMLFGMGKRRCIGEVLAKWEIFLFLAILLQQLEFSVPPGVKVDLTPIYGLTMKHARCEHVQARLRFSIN
Procedure: as §1

[1] = tested on: mixed system B (eleven human P450 molecular species); assay: Metabolism of S-mephenytoin using mixture of microsomal fractions of transformed yeast cells (mixing system B); format: in vitro ADME; conditions: 37° C., 30 min; HPLC
Procedure: The mixing ratio of the human cytochrome P450 molecular species was the same as that of the mixing system B as described above. […] After the mixture was incubated at 37° C. for 30 min, 250 μl of methanol was added to the solution to stop the reaction.

human P450 2C18 = target: T2, human P450 2C18 (Homo sapiens, UniProt P33260); assay: Metabolism (hydroxylation) of substrates using transformed yeast cells or microsomal fractions expressing human P450 2C18
T2 sequence (P33260 26-490): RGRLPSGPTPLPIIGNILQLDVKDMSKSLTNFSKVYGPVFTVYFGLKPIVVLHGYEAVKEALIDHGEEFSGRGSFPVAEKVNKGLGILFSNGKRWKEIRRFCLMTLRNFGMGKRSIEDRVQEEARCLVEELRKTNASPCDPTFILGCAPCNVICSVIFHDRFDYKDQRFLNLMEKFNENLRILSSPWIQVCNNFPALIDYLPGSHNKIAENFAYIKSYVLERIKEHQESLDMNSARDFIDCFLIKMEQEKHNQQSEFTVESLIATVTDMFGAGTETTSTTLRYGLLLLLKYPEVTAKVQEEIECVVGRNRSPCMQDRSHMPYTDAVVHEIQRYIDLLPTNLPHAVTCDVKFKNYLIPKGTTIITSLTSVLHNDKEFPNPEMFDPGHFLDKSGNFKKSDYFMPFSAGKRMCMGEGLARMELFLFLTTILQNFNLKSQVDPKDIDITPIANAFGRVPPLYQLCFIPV
Procedure: as §1

[2] = tested on: other human P450 molecular species
human P450 2C8 = assay: Metabolism (hydroxylation) of substrates using transformed yeast cells or microsomal fractions expressing human P450 2C8
Procedure: as §1

human P450 2E1 = human P450 2E1 (Homo sapiens, UniProt P05181); assay: Metabolism (hydroxylation) of substrates using transformed yeast cells or microsomal fractions expressing human P450 2E1
Chain of human P450 2E1 (P05181 whole entry): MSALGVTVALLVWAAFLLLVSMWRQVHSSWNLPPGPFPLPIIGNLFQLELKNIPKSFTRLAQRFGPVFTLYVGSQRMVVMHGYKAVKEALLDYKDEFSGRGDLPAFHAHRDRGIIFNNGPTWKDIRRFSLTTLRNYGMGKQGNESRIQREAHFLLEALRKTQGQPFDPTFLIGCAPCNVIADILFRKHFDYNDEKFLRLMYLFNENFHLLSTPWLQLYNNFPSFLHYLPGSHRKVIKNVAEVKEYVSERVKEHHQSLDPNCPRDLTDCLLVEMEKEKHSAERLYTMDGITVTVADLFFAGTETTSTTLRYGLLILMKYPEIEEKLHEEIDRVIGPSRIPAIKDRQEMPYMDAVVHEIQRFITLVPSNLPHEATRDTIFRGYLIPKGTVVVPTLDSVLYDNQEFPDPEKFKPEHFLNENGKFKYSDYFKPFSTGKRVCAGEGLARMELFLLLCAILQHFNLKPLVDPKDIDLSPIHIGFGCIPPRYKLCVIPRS
Procedure: as §1

human P450 2A6 = assay: Metabolism (hydroxylation) of substrates using transformed yeast cells or microsomal fractions expressing human P450 2A6
Procedure: as §1

human P450 1A1 [3] = target: T3, human P450 1A1 (Homo sapiens, UniProt P04798); assay: Metabolism (hydroxylation) of substrates using transformed yeast cells or microsomal fractions expressing human P450 1A1; conditions: Table 1; recombinant yeast cells or microsomal fractions; conditions per substrate
T3 sequence (P04798 1-512): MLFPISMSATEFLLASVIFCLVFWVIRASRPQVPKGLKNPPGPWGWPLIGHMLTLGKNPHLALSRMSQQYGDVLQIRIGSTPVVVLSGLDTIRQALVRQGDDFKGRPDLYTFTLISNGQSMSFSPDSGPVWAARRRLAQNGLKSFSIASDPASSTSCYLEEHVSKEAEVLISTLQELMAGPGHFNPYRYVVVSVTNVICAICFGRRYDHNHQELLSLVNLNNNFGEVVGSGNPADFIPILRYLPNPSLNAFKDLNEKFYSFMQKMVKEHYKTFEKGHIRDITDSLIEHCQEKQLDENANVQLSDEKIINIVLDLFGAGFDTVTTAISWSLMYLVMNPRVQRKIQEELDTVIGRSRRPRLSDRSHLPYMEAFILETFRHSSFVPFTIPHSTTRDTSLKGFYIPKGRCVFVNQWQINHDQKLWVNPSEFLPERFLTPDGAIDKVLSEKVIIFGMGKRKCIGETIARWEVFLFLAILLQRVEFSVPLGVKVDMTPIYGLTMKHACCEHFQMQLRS

human P450 2D6 = assay: Metabolism (hydroxylation) of substrates using transformed yeast cells or microsomal fractions expressing human P450 2D6
Procedure: as §1

human P450 2C9 = human P450 2C9 (Homo sapiens, UniProt P11712); assay: Metabolism (hydroxylation) of substrates using transformed yeast cells or microsomal fractions expressing human P450 2C9
Chain of human P450 2C9 (P11712 whole entry): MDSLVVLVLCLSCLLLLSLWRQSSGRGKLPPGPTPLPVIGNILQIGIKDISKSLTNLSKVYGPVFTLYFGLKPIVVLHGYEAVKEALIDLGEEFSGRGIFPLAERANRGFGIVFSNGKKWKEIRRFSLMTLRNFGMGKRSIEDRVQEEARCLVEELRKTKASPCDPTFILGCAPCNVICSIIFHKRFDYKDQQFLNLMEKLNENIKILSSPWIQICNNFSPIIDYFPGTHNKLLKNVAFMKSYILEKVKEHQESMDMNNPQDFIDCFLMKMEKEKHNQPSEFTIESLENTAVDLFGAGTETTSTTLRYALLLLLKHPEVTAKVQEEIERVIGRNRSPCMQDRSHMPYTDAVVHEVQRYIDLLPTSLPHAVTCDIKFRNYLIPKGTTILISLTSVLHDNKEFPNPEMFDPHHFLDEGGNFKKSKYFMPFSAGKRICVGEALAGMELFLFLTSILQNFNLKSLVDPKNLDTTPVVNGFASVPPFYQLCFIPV
Procedure: as §1

human P450 2B6 = target: T4, human P450 2B6 (Homo sapiens, UniProt P20813); assay: Metabolism (hydroxylation) of substrates using transformed yeast cells or microsomal fractions expressing human P450 2B6
T4 sequence (P20813 1-491): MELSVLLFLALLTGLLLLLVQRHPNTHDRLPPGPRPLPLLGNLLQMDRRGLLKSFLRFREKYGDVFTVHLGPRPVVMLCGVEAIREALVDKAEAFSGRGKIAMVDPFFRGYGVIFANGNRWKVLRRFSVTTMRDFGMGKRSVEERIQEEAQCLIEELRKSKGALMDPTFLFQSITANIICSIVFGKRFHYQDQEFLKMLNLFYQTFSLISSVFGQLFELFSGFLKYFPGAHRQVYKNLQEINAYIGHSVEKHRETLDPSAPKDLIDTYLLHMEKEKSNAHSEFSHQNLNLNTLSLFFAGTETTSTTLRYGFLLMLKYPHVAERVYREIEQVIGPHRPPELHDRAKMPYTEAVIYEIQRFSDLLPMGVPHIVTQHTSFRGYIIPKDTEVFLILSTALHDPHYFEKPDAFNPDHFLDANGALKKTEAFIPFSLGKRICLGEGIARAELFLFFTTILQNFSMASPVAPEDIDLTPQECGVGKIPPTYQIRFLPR
Procedure: as §1

human P450 2C19 = human P450 2C19 (Homo sapiens, UniProt P33261); assay: Metabolism (hydroxylation) of substrates using transformed yeast cells or microsomal fractions expressing human P450 2C19
Chain of human P450 2C19 (P33261 whole entry): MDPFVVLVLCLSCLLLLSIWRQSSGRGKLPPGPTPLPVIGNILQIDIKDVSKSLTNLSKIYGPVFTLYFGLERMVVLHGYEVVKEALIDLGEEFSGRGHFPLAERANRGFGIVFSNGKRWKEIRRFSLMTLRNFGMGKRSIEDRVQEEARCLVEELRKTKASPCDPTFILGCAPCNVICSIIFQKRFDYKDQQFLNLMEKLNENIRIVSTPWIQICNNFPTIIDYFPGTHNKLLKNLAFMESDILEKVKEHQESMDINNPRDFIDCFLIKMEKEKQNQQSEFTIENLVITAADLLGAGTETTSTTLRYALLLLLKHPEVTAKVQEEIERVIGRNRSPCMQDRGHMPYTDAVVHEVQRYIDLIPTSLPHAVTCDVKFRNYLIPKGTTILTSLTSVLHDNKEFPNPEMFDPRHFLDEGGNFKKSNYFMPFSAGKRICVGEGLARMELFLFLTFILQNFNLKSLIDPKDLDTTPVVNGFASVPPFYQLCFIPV
Procedure: as §1

human P450 1A1 [4] = target: T3, human P450 1A1; conditions: microsomes
[5] = tested on: mixed microsomal fractions of yeasts expressing human cytochrome P450 (3A4, 2C9, 2C8, 2C18, 2C19, 1A2, 2E1, 1A1, 2B6, 2D6); assay: Metabolism of debrisoquine using mixture of microsomal fractions of transformed yeast cells; format: in vitro ADME; conditions: 37° C., 30 min; HPLC
Procedure: The mixing molar ratio of the human cytochrome P450 molecular species were as follows: [table] […] After the mixture was incubated at 37° C. for 30 min, 50 μl of 60% perchlorate was added to the solution to stop the reaction.

[6] = tested on: other human P450 molecular species; assay: Metabolism of substrates using yeast cells or microsomal fractions expressing the other human P450 molecular species (those not given); conditions: the remaining of the eleven human P450 species
[7] = Table 1, recombinant yeast cells or microsomal fractions, conditions per substrate

SMILES | Hydroxylation activity, human P450 3A4 (human P450 3A4; microsomes) | Hydroxylation activity, human P450 1A2 (human P450 1A2; [7]) | Hydroxylation activity, human P450 2C18 (human P450 2C18; [7]) | Hydroxylated metabolite / hydroxylation activity with yeast expressing other human P450 than those named [2] | Hydroxylation activity, human P450 2C8 (human P450 2C8; microsomes) | Hydroxylation activity, human P450 2E1 (human P450 2E1; [7]) | Hydroxylation activity, human P450 2A6 (human P450 2A6; microsomes) | Hydroxylation activity, human P450 1A1 (human P450 1A1 [3]) | Hydroxylation activity, human P450 2D6 (human P450 2D6; microsomes) | Hydroxylation activity, human P450 2B6 (human P450 2B6; [7]) | further results
CC[C@@]1(c2ccccc2)NC(=O)N(C)C1=O [S-Mephenytoin] | − | − | − | no activity | − | − | − | − | − | − | Metabolites compared with those reported for human liver microsome (Goldstein) [1]: well coincided; Hydroxylation activity, human P450 2C9 (human P450 2C9; [7]): −
N=C(N)N1CCc2ccccc2C1 [Debrisoquine] | − |  |  | no activity | − |  | − |  | + + + |  | Hydroxylation activity, human P450 1A2 (human P450 1A2; microsomes): −; Hydroxylation activity, human P450 2C19 (human P450 2C19; microsomes): −; Hydroxylation activity, human P450 2C18 (human P450 2C18; microsomes): −; Hydroxylation activity, human P450 2E1 (human P450 2E1; microsomes): −; Hydroxylation activity, human P450 1A1 (human P450 1A1 [4]): + +; Metabolites compared with those reported for human liver microsome (Kronbach) [5]: well coincided; Hydroxylation activity, human P450 2C9 (human P450 2C9; microsomes): −; Hydroxylation activity, human P450 2B6 (human P450 2B6; microsomes): −
C[C@]12CC[C@H]3[C@@H](CCC4=CC(=O)CC[C@@]43C)[C@@H]1CC[C@@H]2O [Testosterone] |  | − | − |  |  | − |  | + |  | − | Metabolising (hydroxylation / O-deethylation) activity in words, P450 3A4 (human P450 3A4; 7-ethoxycoumarin 0.5 mM, testosterone 0.05 mM, chlorzoxazone 0.5 mM or 250 μM, acetanilide 5 mM): detected; Hydroxylation activity, human P450 3A4 (human P450 3A4; [7]): + + +; Hydroxylation activity, human P450 2C19 (human P450 2C19; [7]): −; Metabolising (hydroxylation / O-deethylation) activity in words, P450 2C8 (human P450 2C8; 7-ethoxycoumarin 0.5 mM, tolbutamide 1.0 mM, testosterone 0.05 mM, chlorzoxazone, acetanilide 5 mM): detected; Hydroxylation activity, human P450 2C8 (human P450 2C8; [7]): +; Hydroxylation activity, human P450 2A6 (human P450 2A6; [7]): −; Hydroxylation activity, human P450 2D6 (human P450 2D6; [7]): −; Hydroxylated metabolite / hydroxylation activity with yeast expressing other human P450 than those named [6]: not detected
